pIC50: −log10 of the molar value. Where two headings read alike, the source gives them in different places.
Experiments:
recombinant human GALK1 = recombinant human GALK1 (Homo sapiens, UniProt P51570); test: hGALK1 biochemical activity assay (Kinase-Glo Plus, ATP depletion)
Procedure, shortened: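 Recombinant human or mouse GALK1 (5 nM, with 100 μM galactose, in the added enzyme solution) was run with ATP (35 μM in the substrate solution) in HEPES pH 8.0 buffer. Compounds were tested at 11 1/3-step concentrations from 57.4 μM to 0.97 nM. After 1 h at room temperature, remaining ATP was read by Kinase-Glo Plus luminescence.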

recombinant mouse GALK1 = recombinant mouse GALK1 (Mus musculus, UniProt Q9R0N0); test: mGALK1 biochemical activity assay (Kinase-Glo Plus, ATP depletion)
Sequence of recombinant mouse GALK1 (Q9R0N0 whole entry): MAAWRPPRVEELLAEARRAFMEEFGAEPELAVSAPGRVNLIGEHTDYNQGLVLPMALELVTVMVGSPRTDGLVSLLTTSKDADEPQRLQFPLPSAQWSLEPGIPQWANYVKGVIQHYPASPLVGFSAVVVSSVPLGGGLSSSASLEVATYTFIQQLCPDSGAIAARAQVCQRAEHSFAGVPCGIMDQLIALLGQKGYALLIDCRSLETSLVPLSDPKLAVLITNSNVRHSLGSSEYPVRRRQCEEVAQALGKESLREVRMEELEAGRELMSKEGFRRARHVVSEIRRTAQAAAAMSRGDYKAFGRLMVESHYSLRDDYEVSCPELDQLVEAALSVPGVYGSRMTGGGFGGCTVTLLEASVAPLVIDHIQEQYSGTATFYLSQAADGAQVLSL
Procedure, shortened: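 Recombinant GALK1 (5 nM) with 100 μM galactose; GALK1 turnover read as ATP depletion by Kinase-Glo Plus luminescence. Reaction ran 1 h at room temperature before detection reagent was added.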

[1] = aqueous kinetic solubility
[2] = rat microsomal stability (RLM)
[3] = Tables 2-15, 35 μM ATP, 100 μM galactose, 1 h, bracketed figure after some values (e.g. −1.2) is undefined and not reported, read-out: hGALK IC50
[4] = recombinant human GALK1, Kinase-Glo Plus ATP depletion, read-out: hGALK
[5] = Tables 2-15, 35 μM ATP, 100 μM galactose, 1 h, bracketed figure after some values is undefined and not reported, read-out: mGALK IC50
[6] = recombinant mouse GALK1, Kinase-Glo Plus ATP depletion, read-out: mGALK
[7] = recombinant human GALK1, Kinase-Glo Plus ATP depletion, bracketed figure in the cell, e.g. (−1.2), is not defined in the text shown, read-out: hGALK
[8] = recombinant mouse GALK1, Kinase-Glo Plus ATP depletion, bracketed figure in the cell, e.g. (−1.2), is not defined in the text shown, read-out: mGALK
[9] = microsomal stability half-life, minutes

Sequence of recombinant human GALK1 (P51570 whole entry): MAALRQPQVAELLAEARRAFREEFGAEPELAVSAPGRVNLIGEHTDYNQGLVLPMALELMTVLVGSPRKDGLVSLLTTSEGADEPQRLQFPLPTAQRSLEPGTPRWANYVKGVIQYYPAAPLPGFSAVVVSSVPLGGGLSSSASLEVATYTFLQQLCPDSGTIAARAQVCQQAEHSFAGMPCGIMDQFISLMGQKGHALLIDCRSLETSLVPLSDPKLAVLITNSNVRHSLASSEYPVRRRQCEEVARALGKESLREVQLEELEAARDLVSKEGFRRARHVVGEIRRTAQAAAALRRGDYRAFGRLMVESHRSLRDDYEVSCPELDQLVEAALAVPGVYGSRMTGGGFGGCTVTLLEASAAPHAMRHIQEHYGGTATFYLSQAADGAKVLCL

Compound	pIC50 (recombinant human GALK1; [3])	pIC50 (recombinant human GALK1; [4])	pIC50 (recombinant mouse GALK1; [5])	pIC50 (recombinant mouse GALK1; [6])	Perm. (1 × 10^−6 cm/sec) (PAMPA permeability; PAMPA)	Sol. ([1]; aqueous kinetic solubility) [µg/mL]	Metab. Stabil. (m) ([2]; microsomal stability half-life)	Papp (PAMPA permeability; PAMPA, Perm. (1 × 10^−6 cm/sec)) [nm/s]	mGALK IC50 (recombinant mouse GALK1; Tables 2-15, 35 μM ATP, 100 μM galactose, 1 h, bracketed figure after some values is undefined and not reported)	mGALK (μM) (recombinant mouse GALK1; recombinant mouse GALK1, Kinase-Glo Plus ATP depletion)	Perm. (1 × 10^−6 cm/sec) (PAMPA permeability)	Sol. [1] [µg/mL]	Metab. Stabil. (m) ([2]; microsomal half-life)	pIC50 (recombinant human GALK1; [7])	pIC50 (recombinant mouse GALK1; [8])	Metab. Stabil. (m) [2, 9] [m]
CC1=C(C(=O)NCCN(C)C)C(c2ccccc2Cl)N=C(Nc2nc3ccccc3o2)N1 (centres unmarked) [Compound 237]	4.71	4.71	4.81	4.81	>1227 1 × 10^−6 cm/sec	>67	>30									
CC1=C(C(=O)Nc2ccc(N3CCNCC3)cc2)C(c2ccccc2Cl)N=C(Nc2nc3ccccc3o2)N1 (centres unmarked) [Compound 190, 2-(benzo[d]oxazol-2-ylamino)-4-(2-chlorophenyl)-6-methyl-N-(4-(piperazin-1-yl)phenyl)-1,4-dihydropyrimidine-5-carboxamide]	4.16	4.16	4.31	4.31		2.416	8.634	8940								
CC1=C(C(=O)NCc2cnn(C)c2)C(c2ccc(Cl)cc2Cl)N=C(Nc2nc3ccc(F)c(N)c3o2)N1 (centres unmarked) [Compound 127, 2-((7-amino-6-fluorobenzo[d]oxazol-2-yl)amino)-4-(2,4-dichlorophenyl)-6-methyl-N-((1-methyl-1H-pyrazol-4-yl)methyl)-1,4-dihydropyrimidine-5-carboxamide]		6.66		5.71	166.7 1 × 10^−6 cm/sec	5.9	>30									
CC1=C(C(=O)Nc2nncs2)C(c2cccnc2Br)N=C(Nc2nc3ccccc3o2)N1 (centres unmarked) [Compound 262, 2-(benzo[d]oxazol-2-ylamino)-4-(2-bromopyridin-3-yl)-6-methyl-N-(1,3,4-thiadiazol-2-yl)-1,4-dihydropyrimidine-5-carboxamide]					185.7 1 × 10^−6 cm/sec	11.1								4.86	4.71	>30
CC1=C(C(=O)Nc2cc(C(=O)O)ccn2)C(c2ccc(C)cc2Cl)N=C(Nc2nc3cnccc3o2)N1 (centres unmarked) [Compound 106, 2-(4-(2-chloro-4-methylphenyl)-6-methyl-2-(oxazolo[4,5-c]pyridin-2-ylamino)-1,4-dihydropyrimidine-5-carboxamido)isonicotinic acid]	6.07	6.07	5.16	5.16							<1 1 × 10^−6 cm/sec	>51	>30			
CC1=C(C(=O)Nc2cc(C(=O)O)ccn2)[C@H](c2ccc(C)cc2Cl)N=C(Nc2nc3ccc(F)cc3o2)N1 [Compound 55, (R)-2-(4-(2-chloro-4-methylphenyl)-2-((6-fluorobenzo[d]oxazol-2-yl)amino)-6-methyl-1,4-dihydropyrimidine-5-carboxamido)isonicotinic acid]	4.82	6.82	5.86	5.86							<1 1 × 10^−6 cm/sec	>79	>30			
CC1=C(C(=O)Nc2ccc(-n3cccn3)cc2)C(c2ccccc2Cl)N=C(Nc2nc3ccccc3o2)N1 (centres unmarked) [Compound 184, N-(4-(1H-pyrazol-1-yl)phenyl)-2-(benzo[d]oxazol-2-ylamino)-4-(2-chlorophenyl)-6-methyl-1,4-dihydropyrimidine-5-carboxamide]	5.21	5.21	4.91	4.91	<11.8 1 × 10^−6 cm/sec	<1	16.4271									
CC1=C(C(=O)NCc2cn(C)cn2)[C@H](c2ccccc2Cl)N=C(Nc2nc3ccccc3o2)N1 [Compound 235, (R)-2-(benzo[d]oxazol-2-ylamino)-4-(2-chlorophenyl)-6-methyl-N-((1-methyl-1H-imidazol-4-yl)methyl)-1,4-dihydropyrimidine-5-carboxamide]	5.51	5.51	5.36	5.36	866.5 1 × 10^−6 cm/sec	46.1	5.621									
CC1=C(C(=O)Nc2ccc(C(=O)O)cn2)C(c2ccccc2Cl)N=C(Nc2nc3ccc(F)cc3o2)N1 (centres unmarked) [Compound 26, 6-(4-(2-chlorophenyl)-2-((6-fluorobenzo[d]oxazol-2-yl)amino)-6-methyl-1,4-dihydropyrimidine-5-carboxamido)nicotinic acid]		6.17		5.46							<1 1 × 10^−6 cm/sec	>77	>30			
CC1=C(C(=O)Nc2nncs2)C(c2ccccc2C(F)(F)F)N=C(Nc2nc3ccccc3o2)N1 (centres unmarked) [Compound 263, 2-(benzo[d]oxazol-2-ylamino)-6-methyl-N-(1,3,4-thiadiazol-2-yl)-4-(2-(trifluoromethyl)phenyl)-1,4-dihydropyrimidine-5-carboxamide]					29.8 1 × 10^−6 cm/sec	<1								5.16	4.91	>30

The next lines start with the values.

pIC50 (recombinant human GALK1; [3])	pIC50 (recombinant human GALK1; [4])	pIC50 (recombinant mouse GALK1; [5])	pIC50 (recombinant mouse GALK1; [6])	Perm. (1 × 10^−6 cm/sec) (PAMPA permeability; PAMPA)	Sol. ([1]; aqueous kinetic solubility) [µg/mL]	Metab. Stabil. (m) ([2]; microsomal stability half-life)	Papp (PAMPA permeability; PAMPA, Perm. (1 × 10^−6 cm/sec)) [nm/s]	mGALK IC50 (recombinant mouse GALK1; Tables 2-15, 35 μM ATP, 100 μM galactose, 1 h, bracketed figure after some values is undefined and not reported)	mGALK (μM) (recombinant mouse GALK1; recombinant mouse GALK1, Kinase-Glo Plus ATP depletion)	Perm. (1 × 10^−6 cm/sec) (PAMPA permeability)	Sol. [1] [µg/mL]	Metab. Stabil. (m) ([2]; microsomal half-life)	pIC50 (recombinant human GALK1; [7])	pIC50 (recombinant mouse GALK1; [8])	Metab. Stabil. (m) [2, 9] [m]	Compound
	6.17		5.16	17.14 1 × 10^−6 cm/sec	49.6	29.59										CC1=C(C(=O)NCc2cnn(C)c2)C(c2ccc(F)cc2Cl)N=C(Nc2nc3cccc(N)c3o2)N1 (centres unmarked) [Compound 119, 2-((7-aminobenzo[d]oxazol-2-yl)amino)-4-(2-chloro-4-fluorophenyl)-N-((1-methyl-1H-pyrazol-4-yl)methyl)-6-methyl-1,4-dihydropyrimidine-5-carboxamide]
4.76	4.76							inactive	in- active	355.44 1 × 10^−6 cm/sec	4.8	3.664				CC1=C(C(=O)NCc2cnn(C)c2)C(c2ccc(C)cc2Cl)N=C(Nc2nc3cccnc3o2)N1 (centres unmarked) [Compound 107, 4-(2-chloro-4-methylphenyl)-6-methyl-N-((1-methyl-1H-pyrazol-4-yl)methyl)-2-(oxazolo[5,4-b]pyridin-2-ylamino)-1,4-dihydropyrimidine-5-carboxamide]
				60.3 1 × 10^−6 cm/sec	2.1								5.41	4.66	>30	O=C(Nc1nncs1)C1=C(c2cnccn2)NC(Nc2nc3ccccc3o2)=NC1c1ccccc1Cl (centres unmarked) [Compound 249, 2-(benzo[d]oxazol-2-ylamino)-4-(2-chlorophenyl)-6-(pyrazin-2-yl)-N-(1,3,4-thiadiazol-2-yl)-1,4-dihydropyrimidine-5-carboxamide]
6.11	6.11	5.36	5.36	553.2 1 × 10^−6 cm/sec	<1	14.41										CC1=C(C(=O)NCc2cnn(C(C)(C)C)c2)C(c2ccc(C)cc2Cl)N=C(Nc2nc3ccc(F)c(N)c3o2)N1 (centres unmarked) [Compound 132, 2-((7-amino-6-fluorobenzo[d]oxazol-2-yl)amino)-N-((1-(tert-butyl)-1H-pyrazol-4-yl)methyl)-4-(2-chloro-4-methylphenyl)-6-methyl-1,4-dihydropyrimidine-5-carboxamide]
				<1 1 × 10^−6 cm/sec	73.9								5.46	5.11	>30	CC1=C(C(=O)Nc2cc(C(=O)O)ccn2)C(c2ccccc2Cl)N=C(Nc2nc3ccccc3o2)N1C(=O)c1ccccc1 (centres unmarked) [Compound 275, 2-(2-(benzo[d]oxazol-2-ylamino)-1-benzoyl-4-(2-chlorophenyl)-6-methyl-1,4-dihydropyrimidine-5-carboxamido)isonicotinic acid]
				747.27 1 × 10^−6 cm/sec	4.23								5.31	5.31	10.16	COCCNC(=O)C1CC(=O)C2=C(C1)NC(Nc1nc3ccccc3o1)=NC2c1ccccc1Cl (centres unmarked) [Compound 280, 2-(benzo[d]oxazol-2-ylamino)-4-(2-chlorophenyl)-N-(2-methoxyethyl)-5-oxo-1,4,5,6,7,8-hexahydroquinazoline-7-carboxamide]
	6.41		5.46							101.9 1 × 10^−6 cm/sec	>72	>30				CC1=C(C(=O)NCc2cnn(C)c2)C(c2ccccc2Cl)N=C(Nc2nc3cccc(N)c3o2)N1 (centres unmarked) [Compound 82, 2-((7-aminobenzo[d]oxazol-2-yl)amino)-4-(2-chlorophenyl)-6-methyl-N-((1-methyl-1H-pyrazol-4-yl)methyl)-1,4-dihydropyrimidine-5-carboxamide]
